Literature values in patent US9895393B2, “Topical formulations for increasing the dermal concentration of hyaluronic acid” (SHAMROC, INC., priority 2012, dated 2018).
Peptide text beside a SMILES is read from it. * marks the point of attachment. Palmitoyl = CCCCCCCCCCCCCCCC(=O)*

Tests used:
[1] = test system: human fibroblasts
[2] = test system: skin; conditions: Studies have shown
[3] = test system: lipid peroxidation

SMILES	collagen synthesis [1]	collagen production [2]	melanogenesis (the production of pigment) [2]	anti-oxidant activity [3]
CCCCCCCCCCCCCCCC(=O)N[C@@H](CCCCN)C(=O)N[C@H](C(=O)N[C@@H](CCCCN)C(=O)O)C(C)C.O=C(O)C(F)(F)F.O=C(O)C(F)(F)F [palmitoyl-lysyl-valyl-lysine bistrifluoroacetate] (Palmitoyl-Lys-Val-Lys-OH)	stimulates collagen synthesis			
CCCCCCCCC(CCCCCC)C(=O)OC[C@H](OC(=O)C(CCCCCC)CCCCCCCC)[C@H]1OC(=O)C(OC(=O)C(CCCCCC)CCCCCCCC)=C1OC(=O)C(CCCCCC)CCCCCCCC (stereo partly shown) [tetrahexyldecyl ascorbate]		stimulate collagen production	inhibiting melanogenesis	inhibiting lipid peroxidation
